The term Kd denotes the constant that tells how readily two partners part at equilibrium. The low end stands for a tighter complex, the high end for a looser complex.

Results on 33 molecules are retold here after patent US12625141B2, “Fluorescent dye, preparation method and uses thereof” (FLUORESCENCE DIAGNOSIS (SHANGHAI) BIOTECH COMPANY LTD., priority 2019, dated 2026).

SMILES strings stand for the structures.

Data set [1] is described as follows: Fluorescence emission in glycerol versus methanol (viscosity response). The format is physicochemical. The settings on record: for Glycerol/methanol fluorescence intensity ratio: 1×10^-5 M in glycerol and methanol, maximum excitation wavelength of each dye; for Emission (nm): 1×10^-5 M, maximum excitation wavelength of each fluorescent dye.
Another data set has as its system RNA aptamer in cells. Put plainly: Labeling intracellular RNA aptamers in cells. Format: cell-based. The settings on record: for Fluorescence of cells not expressing the RNA aptamer: cells not expressing the RNA aptamer (FIG. 17B); for Fluorescence of cells transcribing the RNA aptamer: cells transcribing the RNA aptamer (FIG. 17A).
Data set [2] has as its system F30-8Pepper-5 RNA aptamer. Nature of the data set: Binding to RNA aptamer, optical properties after binding. The following applies: for Em/nm / Ex/nm / ε / QY (−): after binding to RNA aptamer; for QY (−): relative method with Rhodamine 6G as the standard; for Kd: binding to RNA aptamer; for Activation Multiple: fluorescence activation after binding to RNA aptamer.
A short description of data set [3]: Fluorescence emission at different viscosity conditions in diethanol-glycerol mixed solution. Format: physicochemical. The settings on record: 1×10^−5 M, excitation at 480 nm.
For data set [4], the system named is ACTB-4Pepper RNA aptamer (skeleton protein mRNA) in 293T/17 cell line. Put plainly: Labeling intracellular mRNA, flow detection. Format: cell-based. The following applies: 0.2 μM in PBS, incubated for 5 minutes. The source says:
FIGS. 18A and 18B are the application of molecular rotors III-3, III-43 in labeling intracellular mRNA.

As to `CN(C)c1ccc(/C=C(\C#N)c2ccc(C#N)cc2)cc1` [III-1], in data set [1], the “Glycerol/methanol fluorescence intensity ratio” value came to 990 and the “Emission (nm)” value is 530 nm.
The matching figures for `CCN(CC)c1ccc(/C=C(\C#N)c2ccc(C#N)cc2)cc1` [III-2]: 870 and 530 nm.
For `CN(CCO)c1ccc(/C=C(\C#N)c2ccc(C#N)cc2)cc1` [III-3], in the data set on RNA aptamer in cells, the “Fluorescence of cells not expressing the RNA aptamer” value is “no fluorescence” and the “Fluorescence of cells transcribing the RNA aptamer” value was “bright fluorescence”. Also, in data set [2], the Em/nm is recorded as 530 nm, the Ex/nm worked out at 485 nm, the “ε” value came to 65300 M⁻¹ cm⁻¹ and the “QY (−)” value worked out at 0.66. Also, in data set [2], binding was characterised by a dissociation constant (Kd) of 3.5 nM and the “Activation Multiple” value was found to be 3595. For the same molecule, in data set [1], the “Glycerol/methanol fluorescence intensity ratio” value is recorded as 1025 and the “Emission (nm)” value was found to be 530 nm. For the same molecule, the “Sensitivity of fluorescence intensity to viscosity” value (from here on “Sensitivity”) in data set [3] is given as “sensitive to viscosity”. In data set [4], the “Background fluorescence in cells” value is given as “no obvious background fluorescence” and the “Labeling of skeleton protein mRNA in cell lines expressing target RNA” value is “could specifically mark the mRNA of skeleton protein”.
Regarding `CN(C)CCN(C)c1ccc(/C=C(\C#N)c2ccc(C#N)cc2)cc1` [III-4], in the data set with RNA aptamer in cells, the “Fluorescence of cells not expressing the RNA aptamer” value is “no fluorescence” and the “Fluorescence of cells transcribing the RNA aptamer” value is “bright fluorescence”. For the same molecule, in data set [2], the Em/nm is on record as 514 nm, the Ex/nm is on record as 458 nm, the “ε” value worked out at 44100 M⁻¹ cm⁻¹ and the “QY (−)” value was found to be 0.45. Also, in data set [2], the “Activation Multiple” value came out at 4748. In data set [1], the “Glycerol/methanol fluorescence intensity ratio” value amounted to 892 and the “Emission (nm)” value is reported as 521 nm. The “Sensitivity” value in data set [3] is listed as “sensitive to viscosity”.
Turning to `CN(CCO)c1cnc(/C=C(\C#N)c2ccc(C#N)cc2)cn1` [III-6], in the data set on RNA aptamer in cells, the “Fluorescence of cells not expressing the RNA aptamer” value is reported as “no fluorescence” and the “Fluorescence of cells transcribing the RNA aptamer” value is “bright fluorescence”. Also, in data set [2], the Em/nm turned out to be 497 nm, the Ex/nm is recorded as 435 nm, the “ε” value came out at 54700 M⁻¹ cm⁻¹ and the “QY (−)” value stood at 0.57. In addition, in data set [2], the Kd turned out to be 6.7 nM and the “Activation Multiple” value is on record as 16601. Moreover, in data set [1], the “Glycerol/methanol fluorescence intensity ratio” value turned out to be 1148 and the “Emission (nm)” value stood at 490 nm.
Take `CN(C)CCN(C)c1cnc(/C=C(\C#N)c2ccc(C#N)cc2)cn1` [III-7]: in the data set with RNA aptamer in cells, the “Fluorescence of cells not expressing the RNA aptamer” value was “no fluorescence” and the “Fluorescence of cells transcribing the RNA aptamer” value is “bright fluorescence”. For the same molecule, in data set [2], the Em/nm is on record as 485 nm, the Ex/nm was 443 nm, the “ε” value is 49100 M⁻¹ cm⁻¹ and the “QY (−)” value was determined as 0.42. In data set [2], binding was put at a Kd of 8 nM and the “Activation Multiple” value was 691. Moreover, in data set [1], the “Glycerol/methanol fluorescence intensity ratio” value was found to be 977 and the “Emission (nm)” value was found to be 485 nm.
As to `CN(CCO)c1ccc(/C=C(\C#N)c2ccc(C#N)cc2)cn1` [III-8], in data set [1], the “Glycerol/methanol fluorescence intensity ratio” value is 1168 and the “Emission (nm)” value is reported as 495 nm.
The matching figures for `CCN(CC)CCN(C)c1ccc(/C=C(\C#N)c2ccc(C#N)cc2)cn1` [III-9]: 920 and 490 nm.
For the molecule `CN(C)c1ccc(/C=C(\C#N)c2ccc(C#N)cc2)nc1` [III-10], in data set [1], the “Glycerol/methanol fluorescence intensity ratio” value was determined as 1620 and the “Emission (nm)” value is on record as 520 nm.
On to `CN(CCO)c1ncc(/C=C(\C#N)c2ccc(C#N)cc2)cn1` [III-11], for which, in data set [1], the “Glycerol/methanol fluorescence intensity ratio” value is on record as 869 and the “Emission (nm)” value is on record as 470 nm.
The matching figures for `CN(C)CCN(C)c1cnc(/C=C(\C#N)c2ccc(C#N)cc2)nc1` [III-12]: 855 and 542 nm.
Consider `CN(CCO)c1ccc(/C=C(\C#N)c2ccc(C#N)cn2)cc1` [III-13], for which, in data set [1], the “Glycerol/methanol fluorescence intensity ratio” value amounted to 752 and the “Emission (nm)” value amounted to 545 nm.
The matching figures for `CN(CCO)c1ccc(/C=C(\C#N)c2cnc(C#N)cn2)cc1` [III-14]: 785 and 550 nm.
The matching figures for `N#C/C(=C\c1cc2c3c(c1)CCCN3CCC2)c1ccc(C#N)cc1` [III-15]: 1011 and 561 nm.
Regarding `CN1CCc2cc(/C=C(\C#N)c3ccc(C#N)cc3)ccc21` [III-16], in data set [1], the “Glycerol/methanol fluorescence intensity ratio” value stood at 491 and the “Emission (nm)” value is listed as 555 nm.
Taken in the same sequence, the figures for `CNc1ccc2cc(/C=C(\C#N)c3ccc(C#N)cc3)sc2c1` [III-17] were 828 and 587 nm.
On to `CN(CCO)c1ccc2cc(/C=C(\C#N)c3ccc(C#N)cc3)sc2c1` [III-18], for which, in the data set with RNA aptamer in cells, the “Fluorescence of cells not expressing the RNA aptamer” value was “no fluorescence” and the “Fluorescence of cells transcribing the RNA aptamer” value is on record as “bright fluorescence”. Further, in data set [2], the Em/nm is listed as 599 nm, the Ex/nm stood at 515 nm, the “ε” value came to 54400 M⁻¹ cm⁻¹ and the “QY (−)” value is recorded as 0.43. In addition, in data set [2], the Kd amounted to 18 nM and the “Activation Multiple” value is given as 708. In data set [1], the “Glycerol/methanol fluorescence intensity ratio” value was 978 and the “Emission (nm)” value stood at 595 nm.
With `CN(C)c1cc2sc(/C=C(\C#N)c3ccc(C#N)cc3)cc2s1` [III-19], in data set [1], the “Glycerol/methanol fluorescence intensity ratio” value is 991 and the “Emission (nm)” value worked out at 620 nm.
Taken in the same sequence, the figures for `CCN(CC)c1cc2sc(/C=C(\C#N)c3ccc(C#N)cc3)cc2s1` [III-20] were 836 and 620 nm.
In the case of `CN(CCO)c1cc2sc(/C=C(\C#N)c3ccc(C#N)cc3)cc2s1` [III-21], in the data set on RNA aptamer in cells, the “Fluorescence of cells not expressing the RNA aptamer” value is “no fluorescence” and the “Fluorescence of cells transcribing the RNA aptamer” value was “bright fluorescence”. Further, in data set [2], the Em/nm is listed as 620 nm, the Ex/nm amounted to 577 nm, the “ε” value is 10000 M⁻¹ cm⁻¹ and the “QY (−)” value worked out at 0.58. In addition, in data set [2], the Kd was determined as 6.1 nM and the “Activation Multiple” value worked out at 12600. In addition, in data set [1], the “Glycerol/methanol fluorescence intensity ratio” value came to 544 and the “Emission (nm)” value came out at 620 nm.
Regarding `CN(C)c1ccc(-c2ccc(/C=C(\C#N)c3ccc(C#N)cc3)cc2)cc1` [III-22], in data set [1], the “Glycerol/methanol fluorescence intensity ratio” value came out at 989 and the “Emission (nm)” value is given as 650 nm.
With `CN(C)c1ccc(-c2ccc(/C=C(\C#N)c3ccc(C#N)cc3)s2)cc1` [III-23], in data set [1], the “Glycerol/methanol fluorescence intensity ratio” value came to 687 and the “Emission (nm)” value is on record as 661 nm.
For the molecule `N#C/C(=C\c1ccc(-c2ccc(N3CCOCCOCCOCCOCC3)cc2)s1)c1ccc(C#N)cc1` [III-24], in data set [1], the “Glycerol/methanol fluorescence intensity ratio” value worked out at 596 and the “Emission (nm)” value is 662 nm.
Taken in the same sequence, the figures for `CCN(CC)c1ccc(-c2ccc(/C=C(\C#N)c3ccc(C#N)cc3)s2)s1` [III-25] were 783 and 678 nm.
Taken in the same sequence, the figures for `CN(C)c1ccc(-c2ccc(/C=C(\C#N)c3ccc(C(=O)O)cc3)s2)s1` [III-26] were 368 and 676 nm.
Consider `CN(CCO)c1cc2sc3cc(/C=C(\C#N)c4ccc(C#N)cc4)sc3c2s1` [III-28], for which, in data set [1], the “Glycerol/methanol fluorescence intensity ratio” value worked out at 559 and the “Emission (nm)” value worked out at 662 nm. Moreover, in data set [3], the “Sensitivity” value is given as “sensitive to viscosity”.
In the case of `CCOC(=O)c1ccc(/C(C#N)=C/c2cc3sc4cc(N(C)C)sc4c3s2)cc1` [III-29], in data set [1], the “Glycerol/methanol fluorescence intensity ratio” value is reported as 684 and the “Emission (nm)” value is 665 nm.
In the case of `CN(C)c1cc2sc3cc(/C=C(\C#N)c4ccc([S+](C)[O-])cc4)sc3c2s1` (centres unmarked) [III-30], in data set [1], the “Glycerol/methanol fluorescence intensity ratio” value was determined as 756 and the “Emission (nm)” value stood at 660 nm.
The matching figures for `CN(CCO)c1cc2c(s1)-c1sc(/C=C(\C#N)c3ccc(S(N)(=O)=O)cc3)cc1[Si]2(C)C` [III-32]: 817 and 690 nm.
In the case of `CN(CCO)c1cc2c(s1)-c1sc(/C=C(\C#N)c3ccc(C#N)cc3)cc1[Si]2(C)C` [III-33], in data set [1], the “Glycerol/methanol fluorescence intensity ratio” value was determined as 691 and the “Emission (nm)” value is recorded as 705 nm.
Consider `CN(CCO)c1cc2c(s1)-c1sc(/C=C(\C#N)c3ccc(C(N)=O)cc3)cc1C2(C)C` [III-34], for which, in data set [1], the “Glycerol/methanol fluorescence intensity ratio” value is reported as 489 and the “Emission (nm)” value is on record as 689 nm. For the same molecule, the “Sensitivity” value in data set [3] is recorded as “sensitive to viscosity”.
For the molecule `COCCOCCOCCOCCOCCN(C)c1cc2c(s1)-c1sc(/C=C(\C#N)c3ccc(C#N)cc3)cc1C2(C)C` [III-35], in data set [1], the “Glycerol/methanol fluorescence intensity ratio” value is reported as 710 and the “Emission (nm)” value worked out at 690 nm.
In the case of `CN(CCO)c1ccc(/C=C(\C#N)c2nc3ccccc3s2)cc1` [III-43, reference compound], in data set [4], the “Background fluorescence in cells” value is reported as “higher than III-3” and the “Labeling of skeleton protein mRNA in cell lines expressing target RNA” value is on record as “unclear whether ACTB was expressed”.
